We go through three compounds from paper PMC9026967, “Discovery of a Novel Inhibitor Structure of Mycobacterium tuberculosis Isocitrate Lyase” (Molecules, 2022).

Like-named read-outs stand apart in the source and are kept apart here.

Test [1] deals with T1, M. tuberculosis isocitrate lyase (MtICL) (Mycobacterium tuberculosis, UniProt P9WKK7).
T1 construct: gene icl
T1 sequence (P9WKK7 1-428): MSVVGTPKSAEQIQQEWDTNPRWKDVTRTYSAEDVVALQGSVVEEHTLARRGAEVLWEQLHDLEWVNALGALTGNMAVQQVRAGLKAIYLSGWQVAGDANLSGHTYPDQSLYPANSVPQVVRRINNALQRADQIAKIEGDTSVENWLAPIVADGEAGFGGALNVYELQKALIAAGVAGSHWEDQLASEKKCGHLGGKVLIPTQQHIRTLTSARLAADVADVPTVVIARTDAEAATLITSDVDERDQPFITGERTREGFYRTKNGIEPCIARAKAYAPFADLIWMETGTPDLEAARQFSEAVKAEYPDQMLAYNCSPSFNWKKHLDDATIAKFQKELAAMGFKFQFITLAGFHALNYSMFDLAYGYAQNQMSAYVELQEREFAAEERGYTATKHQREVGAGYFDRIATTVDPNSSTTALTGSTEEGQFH
Put plainly: biochemical.

For test [2], the target named is T1, M. tuberculosis isocitrate lyase (MtICL). Put plainly: biochemical. This is another data set of the same source.

Broadly, the IC50 is the concentration at which inhibition is half-maximal. Regarding `C=C(CC(=O)O)C(=O)O` [IA, itaconic acid], half-maximal inhibition in test [1] (IC50) was put at 38.6 ± 0.8 µM. Consider `O=c1ccc2ccc(O)c(O)c2o1` [MOL005118, Daphnetin], for which inhibition in test [2] was half-maximal at 24.4 µM (IC50). In test [1], `O=C(O)C(=O)CBr` [3-BP, 3-bromopyruvic acid] returned an IC50 of 63.6 ± 2.8 µM.
